Data set [1] deals with T1, human recombinant COX-2 enzyme (Homo sapiens, UniProt P35354).
T1 sequence (P35354 18-604): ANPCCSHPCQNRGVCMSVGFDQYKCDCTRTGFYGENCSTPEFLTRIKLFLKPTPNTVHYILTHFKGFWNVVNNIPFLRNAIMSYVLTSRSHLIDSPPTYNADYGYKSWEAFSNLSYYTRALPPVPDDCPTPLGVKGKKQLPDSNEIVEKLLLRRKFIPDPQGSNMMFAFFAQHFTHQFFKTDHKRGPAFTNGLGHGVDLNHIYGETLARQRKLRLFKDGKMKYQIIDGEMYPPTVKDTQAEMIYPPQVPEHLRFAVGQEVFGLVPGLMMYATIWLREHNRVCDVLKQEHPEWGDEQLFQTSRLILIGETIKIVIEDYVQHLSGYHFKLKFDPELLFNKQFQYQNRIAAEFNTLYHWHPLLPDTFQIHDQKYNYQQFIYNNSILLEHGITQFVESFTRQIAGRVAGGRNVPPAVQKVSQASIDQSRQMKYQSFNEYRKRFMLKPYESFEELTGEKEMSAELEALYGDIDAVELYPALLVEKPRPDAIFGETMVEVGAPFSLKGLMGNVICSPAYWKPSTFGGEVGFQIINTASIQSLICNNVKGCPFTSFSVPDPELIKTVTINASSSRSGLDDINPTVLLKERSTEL
Kind of data set: In vitro COX-2 inhibition assay.

The structures appear in SMILES notation.

A word on the melting point: it is the temperature, or range, at which the solid turns liquid. A word on the IC50: it is the concentration needed to halve the response being measured. Regarding `COC(=O)c1c(-c2ccccc2)c(C(=O)c2ccccc2)n2ccc(C)cc12` [Compound 4a, Methyl 3-Benzoyl-7-Methyl-2-Phenylindolizine-1-Carboxylate], the melting point lay within 173 to 174 °C. For the same molecule, the IC50 in data set [1] came out at 41.59 ± 0.03 µM.
On the same counts, the results for `COC(=O)c1c(-c2ccccc2)c(C(=O)c2ccc(Br)cc2)n2ccc(C#N)cc12` [Compound 4f, Methyl 3-(4-Bromobenzoyl)-7-Cyano-2-Phenylindolizine-1-Carboxylate] are 208 to 209 °C and 13.55 ± 0.03 µM.
As to `COC(=O)c1c(-c2ccccc2)c(C(=O)c2ccc(C#N)cc2)n2ccc(C#N)cc12` [Compound 4e, Methyl 7-Cyano-3-(4-Cyanobenzoyl)-2-Phenylindolizine-1-Carboxylate], the melting point was in the range of 235 to 236 °C. Also, the IC50 in data set [1] was determined as 6.71 ± 0.03 µM.
`COC(=O)c1c(-c2ccccc2)c(C(=O)c2ccc(Cl)cc2)n2ccc(C)cc12` [Compound 4c, Methyl 3-(4-Chlorobenzoyl)-7-Methyl-2-Phenylindolizine-1-Carboxylate] had a melting point of 154 to 155 °C. The IC50 in data set [1] was found to be 38.11 ± 0.03 µM.
The matching figures for `COC(=O)c1c(-c2ccccc2)c(C(=O)c2ccc(OC)cc2)n2ccc(C#N)cc12` [Compound 4g, Methyl 7-Cyano-3-(4-Methoxybenzoyl)-2-Phenylindolizine-1-Carboxylate]: 166 to 167 °C and 9.62 ± 0.03 µM.
The matching figures for `COC(=O)c1c(-c2ccccc2)c(C(=O)c2ccc(F)cc2)n2ccc(C)cc12` [Compound 4b, Methyl 3-(4-Fluorobenzoyl)-7-Methyl-2-Phenylindolizine-1-Carboxylate]: 167 to 168 °C and 27.08 ± 0.03 µM.
On the same counts, the results for `COC(=O)c1c(-c2ccccc2)c(C(=O)c2ccc(Br)cc2)n2ccc(C)cc12` [Compound 4d, Methyl 3-(4-Bromobenzoyl)-7-Methyl-2-Phenylindolizine-1-Carboxylate] are 137 to 138 °C and 37.66 ± 0.03 µM.
